This test concerns the target T1, human FAAH (Homo sapiens, UniProt O00519).
T1 construct: host or cells: COS-7 cells, transient transfection (FuGENE 6); 13,000 g membrane fraction solubilised in 1% Triton X-100
T1 sequence (O00519 1-579): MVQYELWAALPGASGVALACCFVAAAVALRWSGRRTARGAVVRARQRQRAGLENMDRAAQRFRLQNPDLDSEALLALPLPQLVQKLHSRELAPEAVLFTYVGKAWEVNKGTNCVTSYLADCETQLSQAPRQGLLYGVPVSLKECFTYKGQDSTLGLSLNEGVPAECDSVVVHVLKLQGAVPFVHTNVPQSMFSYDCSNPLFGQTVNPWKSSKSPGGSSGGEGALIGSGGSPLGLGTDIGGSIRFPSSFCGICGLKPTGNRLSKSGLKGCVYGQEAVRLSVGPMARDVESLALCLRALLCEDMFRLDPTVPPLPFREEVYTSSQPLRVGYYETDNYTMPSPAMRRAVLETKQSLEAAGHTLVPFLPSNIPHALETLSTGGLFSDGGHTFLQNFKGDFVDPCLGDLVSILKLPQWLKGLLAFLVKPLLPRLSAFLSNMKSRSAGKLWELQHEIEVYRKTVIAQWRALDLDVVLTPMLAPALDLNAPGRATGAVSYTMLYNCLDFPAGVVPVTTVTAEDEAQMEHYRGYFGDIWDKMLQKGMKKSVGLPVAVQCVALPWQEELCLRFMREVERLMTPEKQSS
Kind of test: Human FAAH inhibition assay (fluorescence, AMC arachidonoyl amide hydrolysis). To be noted: human FAAH from transfected COS-7 cells; 20 μM AMC arachidonoyl amide; 30 min preincubation, 4 h reaction at room temperature. Format: biochemical. As to the method:
Exemplary compounds are set forth in the Examples provided below. Compounds were assayed as inhibitors of human FAAH using the method described in detail in Example 16.
The following assays were used to determine the inhibition of FAAH: (1) a fluorescence-based assay (Manjunath et al., Analytical Biochemistry (2005) 343:143-151); and (2) a microsome-based fluorescent assay (Wang et al., Biomolecular Screening (2006) 1-9).
COS-7 cells were split the day before, 1:5 into 150 mm×25 mm cell culture dishes (Corning Inc., Cat. No. 430599). Transient transfection took place at 30-40% confluency according to FuGENE 6 Transfection Reagent (Roche, Cat. No. 11814 443 001).
The FuGENE transfection 6 reagent (45 uL) was added to 1410 μL of media (DMEM, serum free without pen/strep) in a 15 mL conical tube and incubated at room temp for 5 minutes, followed by the addition of FAAH plasmid DNA (15 μg) (OriGene Cat. No. TC119221, Genbank Accession No. NM_001441.1, 0.67 ug/uL) and a further incubation of 15 minutes at room temperature. The resulting solution was added into one dish of 30-40% confluent COS-7 cells in a dropwise manner. The COS-7 cell dish was subsequently incubated for 48 hours. The cells were then harvested.
Media was aspirated from the dishes and the cells rinsed with 10 mL PBS. The PBS was removed and 3 mL of PBS added to the dish. The dish was scraped to resuspend the cells, and the subsequent cell suspension collected into a 15 mL conical tube. The cells were pelleted by centrifugation at 1200 rpm for 5 minutes in a bench top centrifuge. PBS was removed and the cell pellet snap frozen in liquid nitrogen and stored at 80° C.
COS-7 Cells FAAH purification: • (1) Fractionation: Frozen cell pellets from transient transfections were thawed on ice and resuspended in 12.5 mM Hepes pH 8.0, 100 mM NaCl, 1 mM EDTA (10 mL/0.2 g cell pellet). The pellets were dounce homogenized and then sonicated to produce cell extract. The cell extract was subsequently centrifuged at 1000 g to remove cellular debris. The pellet was discarded and the supernatant centrifuged at 13,000 g for 20 minutes. The pellet contained membrane bound FAAH. The supernatant was discarded and the pellet resolubilized. • (2) Resolubilization: The fraction of interest, (13,000 g, membrane fraction) was resuspended in 2.3 mL resuspension buffer (20 mM Hepes pH 7.8, 10% v/v Glycerol, 1 mM EDTA, 1% Triton X-100) and the sample incubated on ice for 1 hour and then centrifuged to remove any particulate matter. The supernatant containing solubilized human FAAH was aliquoted and snap frozen in liquid nitrogen and stored at 80° C. until use. • (3) Characterization: Protein Concentration determined by Bradford assay. • SDS gel and Western blot to confirm presence of FAAH • FAAH activity assay • Km determination—96-well assay • Linear dependence—96-well assay • Standard compound Ki determination—384-well assay
Rat FAAH biochemical assays were carried out in a 96 well flat bottom black nontreated polystyrene plates (Corning Costar Catalogue #3915). FAAH reaction buffer: 50 mM Hepes (pH 7.5), 1 mM EDTA, 0.2% Triton X-100. FAAH substrate—AMC Arachidonoyl Amide (Cayman Chemicals Company, Catalog #10005098). The reaction was read in an Envision microtiter plate reader [Excitation filter 355 nm (40 nm bandpass); Emmision filter 460 nm (25 nm bandpass)]. The raw fluorescence was plotted on the y axis and the inhibitor concentration on the x axis to give a dose response inhibition curve. The data was fitted to a single site competitive inhibition equation, fixing the Km for the rat and human enzyme to 12 μM and 9 μM respectively.
The principle of this assay was the hydrolysis of AMC-Arichodonoyl, a fluorescent analogue of Anandamide, which results in the formation of Arachidonic acid and AMC. The formation of AMC results in an increase in fluorescence (see, for example, Manjunath et al., Analytical Biochemistry (2005) 343:143-151; and Wang et al., Biomolecular Screening (2006) 1-9). […]
As for `O=c1c2ccc(B(O)O)cc2ncn1CCc1ccccc1` [Compound 10], the inhibition constant Ki (in general, the equilibrium dissociation constant of an inhibitor or competing ligand from its target) is at most 0.01 µM.
The figure for `Cc1nc2cc(B(O)O)ccc2c(=O)n1CCc1ccccc1` [Compound 9] is 0.01 to 0.1 µM; for `O=c1c2ccc(B(O)O)cc2ccn1CCc1ccccc1` [Compound 3] it is at most 0.01 µM; for `O=c1c2ccc(B(O)O)cc2cnn1CCc1ccccc1` [Compound 13] it is at most 0.01 µM.
Under `O=c1[nH]c(CCc2ccccc2)nc2ccc(B(O)O)cc12` [Compound 14] stands 0.1 to 1 µM; under `CC(Cn1ccc2cc(B(O)O)ccc2c1=O)c1ccccc1` (stereo not drawn) [Compound 5], 0.01 to 0.1 µM; under `CCCCCCn1ccc2cc(B(O)O)ccc2c1=O` [Compound 7], at most 0.01 µM.
`Cc1nc2cc(B(O)O)ccc2c(=O)n1C` [Compound 8] registered an inhibition constant (Ki) of over 1 µM.
The figure for `Cn1ccc2cc(B(O)O)ccc2c1=O` [Compound 1] is 0.01 to 0.1 µM; for `O=c1c2cc(B(O)O)ccc2ccn1CCc1ccccc1` [Compound 11] it is 0.01 to 0.1 µM.
In turn, `O=C1c2ccc(B(O)O)cc2CN1CCc1ccccc1` [Compound 15] returned a Ki of at most 0.01 µM.
Under `O=C1c2ccc(B(O)O)cc2CCN1CCc1ccccc1` [Compound 12] stands at most 0.01 µM; under `CC(c1ccccc1)n1ccc2cc(B(O)O)ccc2c1=O` (stereo not drawn) [Compound 4], 0.01 to 0.1 µM; under `O=c1c2ccc(B(O)O)cc2ccn1Cc1ccccc1` [Compound 2], 0.01 to 0.1 µM.
Take `CC(Cc1ccccc1)n1ccc2cc(B(O)O)ccc2c1=O` (stereo not drawn) [Compound 6]: the Ki is 0.01 to 0.1 µM.

The record behind these values is US8802064B2, “Inhibitors of fatty acid amide hydrolase” (Infinity Pharmaceuticals, Inc., priority 2009, dated 2014).
